Results taken from US10208029B2, “Photoacid compositions having extended lifetime of proton dissociation state” (University of Central Florida Research Foundation, Inc., priority 2013, dated 2019).

Columns and labels:
[1] = pH of aqueous solution of photoacid 1 in the dark, under 419 nm irradiation and after light off; type: physicochemical
Excerpt: Photoacid 1 shown in FIG. 2B as MEH comprises an example disclosed PAH comprising a protonated photochromic merocyanine (MEH) with a propyl sulfonate group on the nitrogen of the indoline moiety. It was discovered that photoacid 1 can reversibly change the proton concentration of its solution by over 100 times.
In an aqueous solution, the MEH form of 1 is predominantly at room temperature in the dark, which was proven by UV-Vis and NMR spectroscopy.
Proton dissociation of the cis-MEH produces cis-ME, which undergoes a nucleophilic ring closing reaction to yield the product shown as SP in FIG. 2B and a proton. The product formed by the ring closing process has a stabilized proton dissociation state.
When the light was turned off, the pH value increased quickly to ˜4.5 in ˜1 min, gradually returning to its original level in ˜5 min. This cycle can be repeated many times. Therefore, the proton concentration in a solution having photoacid 1 can be simply controlled by switching a visible light source on and off.

[2] = Reversibility of photo-induced proton release; type: physicochemical; conditions: PBS buffer with a pH of 7.4
Excerpt: Referring now to FIGS. 6A-6QQ, the structures of 43 photoacids designed based on FIG. 3A including the photoacids 1 and 40 are shown. All of them have been synthesized. […]. Analogs of photoacid 1 have been extensively studied. Electron-donating groups (-Me and —OMe) on the phenolic moiety increase the stability of the photoacid towards hydrolysis and faster the reverse reaction rate. Photoacids with extended conjugated structures can absorb light and thus function at longer wavelengths than photoacid 1. For example, photoacid 20 has a maximum absorption at 538 nm in 95% ethanol solution, which is about 100 nm longer than that of photoacid 1. Photoacids 10, 17 and 39 have acrylate moieties. They can be used to make photoacid polymers via chain-growth polymerization or thiol-ene reaction. […]. […] In photoacid 34, a benzothiazolium is used as the EA part since it improves the reversibility of the photoreaction.

reversible change of proton concentration of its solution [1] | pH value of aqueous solution ([1]; 5.88×10^−4 M aqueous solution, 25° C., dark) | pH under irradiation ([1]; aqueous solution irradiated with 419 nm light) | pH drop upon irradiation ([1]; aqueous solution, 419 nm light) | pKa ([1]; calculated from pH of 5.88×10^−4 M aqueous solution at 25° C., dark state) | pH value after the light was turned off ([1]; ~1 min after light off) | reversible proton release [2] | Compound | time to return to original pH level after light off ([1]; aqueous solution, dark) [min]
over 100 times | 5.5 | 3.3 | more than 2 units | 7.8 | ~4.5 |  | CC1(C)C(/C=C/c2ccccc2O)=[N+](CCCS(=O)(=O)[O-])c2ccccc21 [photoacid 1] | ~5
 |  |  |  |  |  | can reversibly release a proton | O=S(=O)([O-])CCC[n+]1c(/C=C/c2cccc3cn[nH]c23)sc2ccccc21 [photoacid 34] | 
